Data from paper PMC11212140, “Molecular Bidents with Two Electrophilic Warheads as a New Pharmacological Modality” (ACS Central Science, 2024).
Where two headings read alike, the source gives them in different places.

Experiments:
MKK7 = target: T1, MKK7 (Homo sapiens, UniProt O14733); experiment: MKK7 binding, KdELECT assays (DiscoverX); details: for fold loss of potency: vs ZNL-8162
T1 construct: purchased DiscoverX
T1 sequence (O14733 1-419): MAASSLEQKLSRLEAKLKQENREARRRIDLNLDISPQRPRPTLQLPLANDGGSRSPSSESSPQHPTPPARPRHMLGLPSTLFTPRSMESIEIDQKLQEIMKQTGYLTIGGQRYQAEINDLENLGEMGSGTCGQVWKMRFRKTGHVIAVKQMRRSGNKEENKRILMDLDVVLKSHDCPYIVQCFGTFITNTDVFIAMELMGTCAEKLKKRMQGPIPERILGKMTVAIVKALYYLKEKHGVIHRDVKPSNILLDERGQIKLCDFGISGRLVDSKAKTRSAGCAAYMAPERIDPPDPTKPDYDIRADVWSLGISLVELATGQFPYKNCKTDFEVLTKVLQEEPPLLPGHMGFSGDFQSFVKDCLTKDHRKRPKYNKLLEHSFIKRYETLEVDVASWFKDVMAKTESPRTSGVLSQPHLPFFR
Excerpt: Figure 2 ZNL-8162 is a molecular bident for MKK7. (A) Compound structures for MKK7-targeting molecular bident (ZNL-8162) and its relatives lacking one or both cysteine-reactive groups. (B) Covalent modeling for ZNL-8162 engagement of MKK7(PDB: 6YG3). (C) MS/MS spectrum of ZNL-8162 covalently modifying Cys218 and Cys276 of MKK7. Red and yellow circles indicate ions of type y for sequences marked (1) and (2), respectively. Blue circles indicate ions of b for sequence (1). *, carbamidomethyl cysteine, Δ, oxidized methionine. (D) MKK7 binding data were obtained from KdELECT assays (DiscoverX). Data are presented as mean ± s.d. of n = 2 biologically independent samples.
Table S2. […]

p-JNK1/2 = experiment: Immunoblot of MKK7-JNK pathway in MDA-MB-231 cells; assay type: cell-based; details: MDA-MB-231, anisomycin, 16 h, up to 10 μM
Procedure: Figure S1. Effects of the indicated compounds on the MKK7 -JNK pathway in MDA -MB-231 cells after 16 h treatment. MDA -MB-231 cells were pretreated with anisomycin for 45 min prior to the addition of the indicated compounds f or 16 h. Representative data from two independent […]
Anisomycin (10 μg/mL) - + + +
(1 picture or pasted object on this page, not shown here) […]
(§1) Immunoblotting and antibodies
Cells were lysed in RIPA buffer (150 mM NaCl, 1.0% IGEPAL® CA-630, 0.5% sodium deoxycholate, 0.1% SDS, 50 mM Tris, pH 8.0) (Sigma, Cat# R0278) with protease inhibitor and phosphatase inhibitor (Roche). The protein concentrations were measured by BCA analysis (Thermo Fisher Scientific, Cat # PI23225). Equal amounts of protein were resolved by 4-12% Bis-Tris gels (Life Technologies), and then transferred to the Immuno-Blot PVDF membrane (BioRad, cat # 1620177). The membranes were blocked by Intercept blocking buffer (LI-COR, cat #927-60001) for 1 hour at room temperature. Proteins were probed with appropriate primary antibodies at 4 ℃ overnight and then with IRDye®800-labeled goat anti-rabbit IgG (LICOR Biosciences, cat […]
or IRDye 680RD goat anti-Mouse IgG (LICOR Biosciences , Cat # 926-68070) secondary antibodies at room temperature for 1 hour. The membranes were detected on Odyssey CLx system.
Antibodies used in this study include anti-following proteins: EGFR (Cell signaling Technology, […]
Akt (Cell signaling Technology, # 9272L, 1:1000), p-Akt (Cell Signaling Technology, #4060S,

EGFR^L858R Ba/F3 cells = experiment: Antiproliferation assay (CellTiter-Glo); assay type: cell-based; details: vs ZNL-0056 and ZNL-0091
Procedure: (§2) Figure S6 Dose-response curves for the indicated compounds in EGFRL858R, EGFRL858R/C797S, and EGFRL858R/C775S Ba/F3 cells following 72 h of treatment. Cell viability was assessed with CellTiter-Glo.
(§3) Data are presented as the mean ± SEM (n = 4). Representative data from three independent experiments
(§4) (1 picture or pasted object on this page, not shown here)
(§5) For infection of Ba/F3 cells, 2.5 mL of viral supernatant and 8 μg/mL polybrene was added to 2.5 million cells per well in six-well plates. The plate was centrifuged at 2500 rpm for 90 minutes at 37 °C for the spin infection. Then, virus-containing medium was removed 48 hours later and successfully infected cells were selected with the addition of 1 μg/mL puromycin to the medium.
(§6) After 3 days, cells were transferred into the fresh medium without IL-3 and puromycin. IL-3-independent transformed cells were maintained in RPMI medium 1640 supplemented with 10%
(§7) FBS. Expression of EGFR was examined by Western blot.
as §1
(§8) Cells were lysed in RIPA buffer (150 mM NaCl, 1.0% IGEPAL® CA-630, 0.5% sodium deoxycholate, 0.1% SDS, 50 mM Tris, pH 8.0) (Sigma, Cat# R0278) with protease inhibitor and phosphatase inhibitor (Roche). The protein concentrations were measured by BCA analysis (Thermo Fisher Scientific, Cat # PI23225). […]
(§9) or IRDye 680RD goat anti-Mouse IgG (LICOR Biosciences , Cat # 926-68070) secondary antibodies at room temperature for 1 hour. The membranes were detected on Odyssey CLx system. […]
(§10) treatment. Cell viability was determined by using CellTiter-Glo (Promega #G7571) according to the manufacturer’s instructions, measuring luminescence using an Envision plate-reader (PerkinElmer Inc.). […]
(§11) After 6 hours treatment, cells were pelleted, washed with PBS once and lysed with IP lysis buffer (25mMTris-HCl pH 7.4, 150mM NaCl, 1 mM EDTA, 1% NP-40 and 5% glycerol) (Thermo Fisher Scientific, Cat#87788) containing protease/phosphatase inhibitor cocktail (Roche). The protein concentrations were measured by BCA analysis (Pierce). […]

[1] = system: EGFR^L858R/C775S Ba/F3 cells; experiment: Antiproliferation assay (CellTiter-Glo); assay type: cell-based; details: vs EGFR^L858R Ba/F3
Procedure: as §2, §3, §4, §5, §6, §7, §1, §8, §9, §10, §11

EGFR = system: T2, EGFR; experiment: Cellular target engagement assays (competitive pulldown); assay type: cell-based; details: 1 μM probe
T2 construct: expressed in transfected cells; host or cells: Ba/F3 (murine pro-B cells transduced with an EGFR mutant expression vector)
Procedure: Figure 4 ZNL-0056 covalently engages Cys775 and Cys797 in EGFR Ba/F3 cells. (A) Carton of competition EGFR pulldown strategy to test covalent EGFR engagement in cells. (B) Competitive pulldown assay in EGFR^L858R Ba/F3 cells treated with ZNL-0056 at the indicated concentrations for 6 h. Cell lysates were incubated with bio-osimertinib. (C) Competitive pulldown assay in EGFR^L858R Ba/F3 cells treated with ZNL-0056 at the indicated concentrations for 6 h. Cell lysates were incubated with bio-ZNL-0013, which competes for the binding pocket of the target kinase. (D) Competitive pulldown assay in EGFR^L858R/C797S Ba/F3 cells treated with ZNL-0056 at the indicated concentrations for 6 h. Cell lysates were incubated with bio-ZNL-0013, which competes for the binding pocket of the target kinase. Western blotting showing the pulldown (PD) or input (total lysate) of EGFR. […]
as §10, §11

[2] = Figure 2D, read-out: IC50 against MKK7

Structure (SMILES)	IC50 (MKK7; [2])	inhibition of p-JNK1/2 (p-JNK1/2)	fold loss of potency (MKK7)	other results
C=CC(=O)Nc1ccccc1Nc1nc(NC2CCN(C(=O)C=C)C2)ncc1Cl (centres unmarked) [ZNL-8162]	133 nM	strong inhibition		IC50 (MKK7; from ZNL-8163 and ZNL-8165 IC50 data, read-out: IC50 estimated from single warhead compounds assuming independent contributions from both covalent bonds): ~182 nM
C=CC(=O)Nc1ccccc1Nc1nc(NC2CCN(C(=O)CC)C2)ncc1Cl (centres unmarked) [ZNL-8163]	437 nM	less potency	~3 fold	
CCC(=O)Nc1ccccc1Nc1nc(NC2CCN(C(=O)CC)C2)ncc1Cl (centres unmarked) [ZNL-8166]	> 10000 nM	did not exhibit any inhibition		
C=CC(=O)Nc1cc(C(=O)Nc2nc3cccc(C)c3n2[C@@H]2CCCCN(C(C)=O)C2)cs1 [ZNL-0013]				cell growth inhibition activity, fold weaker (EGFR^L858R Ba/F3 cells): about 5 fold; potency loss (shift) in the EGFR^L858R/C775S mutant [1]: 20 fold
C=CC(=O)Nc1cc(C(=O)Nc2nc3cccc(C)c3n2[C@@H]2CCCCN(C(=O)CCOCCOCCOCCOCCNC(=O)CCCC[C@@H]3SC[C@@H]4NC(=O)N[C@@H]43)C2)cs1 [bio-ZNL-0013]				enrichment of EGFR from cell lysate under denaturing conditions (EGFR): significant enrichment
C=CC(=O)N1CCC(Nc2ncc(Cl)c(Nc3ccccc3NC(=O)CC)n2)C1 (centres unmarked) [ZNL-8165]	313 nM	less potency	~3 fold	
